Experimental data from patent US20230086119A1, “ANTICANCER AGENT CONTAINING RHOA PEPTIDE INHIBITOR AS AN ACTIVE INGREDIENT” (EL MED, priority 2020, published 2023).
Where a SMILES comes first, the peptide text is derived from it. [ ]: non-standard residue; d: D form. The star is where a group is joined. ξ: configuration not given here. Biotinyl(4ξ) = O=C1N[C@H]2CSC(CCCCC(=O)*)[C@H]2N1; pY = N[C@@H](Cc1ccc(OP(=O)(O)O)cc1)C(=O)O; ξIle = CC[C@H](C)C(N)C(=O)O

Assays:
HEK293T cells [1] = assay: Cell migration by wound healing method in response to Wnt3A; assay type: cell-based; settings: 1 μM, Wnt3A 30 ng/ml, 48 hours, FIG. 42
[2] = biological target: T1, p-Tyr42 RhoA and β-catenin (Homo sapiens, UniProt P35222); assay: Co-immunoprecipitation of p-Tyr42 RhoA with β-catenin after Wnt3A; assay type: cell-based; settings: cells pretreated with inhibitor, then Wnt3A; FIGS. 20 and 21
T1 construct: endogenous in cells
T1 sequence (P35222 2-781 limits assumed): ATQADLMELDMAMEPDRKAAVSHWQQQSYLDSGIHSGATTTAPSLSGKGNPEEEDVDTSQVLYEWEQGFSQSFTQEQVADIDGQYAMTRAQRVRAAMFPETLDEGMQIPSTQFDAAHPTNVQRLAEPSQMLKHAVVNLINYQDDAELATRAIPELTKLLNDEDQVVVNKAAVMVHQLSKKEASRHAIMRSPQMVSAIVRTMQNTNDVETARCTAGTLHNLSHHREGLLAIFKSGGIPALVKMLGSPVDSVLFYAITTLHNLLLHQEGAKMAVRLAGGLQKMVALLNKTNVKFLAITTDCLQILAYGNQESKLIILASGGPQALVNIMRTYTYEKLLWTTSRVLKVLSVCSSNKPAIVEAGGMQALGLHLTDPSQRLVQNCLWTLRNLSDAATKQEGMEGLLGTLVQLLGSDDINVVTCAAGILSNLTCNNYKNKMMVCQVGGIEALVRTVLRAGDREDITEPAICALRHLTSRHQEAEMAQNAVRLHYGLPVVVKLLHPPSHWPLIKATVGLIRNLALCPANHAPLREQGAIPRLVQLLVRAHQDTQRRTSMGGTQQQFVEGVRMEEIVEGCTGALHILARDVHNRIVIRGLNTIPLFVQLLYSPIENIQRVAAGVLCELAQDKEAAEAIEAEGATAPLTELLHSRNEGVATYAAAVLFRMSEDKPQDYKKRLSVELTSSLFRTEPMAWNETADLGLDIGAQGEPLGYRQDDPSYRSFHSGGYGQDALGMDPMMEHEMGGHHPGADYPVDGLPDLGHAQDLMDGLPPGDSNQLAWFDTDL
Experimental: (§1) HEK293T cells were collected and washed with ice-cold PBS, and dissolved with RIPA buffer (50 mM Tris-HCl (pH7.4), 150 mM NaCl, 1% Nonidet P-40, 0.25% NaN3, 1 mM EDTA, 1 mM PMSF, 1 μg/mL aprotinin, 1 μg/mL leupeptin, 1 μg/mL pepstatin, 1 mM sodium orthovanadate, and 1 mM NaF). The cell lysate was centrifuged at 13,475×g for 20 minutes and the supernatant was analyzed for protein concentration using the BCA Protein Assay Kit (Pierce; Rockford, USA). Proteins of the cell lysate were run on SDS-PAGE and transferred to a PVDF membrane (Millipore; Billerica, USA). Anti-RhoA ( 1/500), anti-actin (Santa Cruz; Dallas, Calif.), anti-GSK-3β( 1/500), anti-phospho (Ser9)-GSK-3β( 1/500) (both Cell Signaling, Beverly, USA), anti-O-catenin ( 1/1000) (Invitrogen, Carlsbad, USA), anti-active β-catenin ( 1/500) (Millipore, Billerica, USA), and anti-Tau ( 1/500) (Biosource; Camarillo, Calif.) antibodies were incubated with PVDF membranes at room temperature for 2 hours, and then each was washed 3 times for 5 minutes. Thereafter, the membrane was incubated for 1 hour with anti-rat IgG antibody or anti-mouse IgG antibody conjugated with horse radish peroxidase (HRP) (both provided by ENZO Life Science; Farmingdale, USA, 1/1000 dilution) and each was washed later three times for 10 minutes. The membrane was incubated with an enhanced chemiluminescence (ECL) reagent (Amersham; Uppsala, Sweden) and then exposed to an X-ray film. The strength of the band was quantified with the ImageJ program of the U.S. National Institutes of Health (Bethesda, USA).
1×10^7 Cells were washed with 1×PBS, and the cell lysate was prepared using cell lysis buffer (20 mM Tris pH 7.4, 120 mM NaCl, and 1% Nonidet P-40) containing 10 μg/mL each of leupeptin and aprotinin and each of NaF, Na3VO4, PMSF and 5 mM MgCl2. The lysate was used for immunoprecipitation by specific antibodies. […]

LN18 cells = assay: MTT proliferation with stimulants (FIG. 37); assay type: cell-based; settings: pre-incubated one hour, stimulant 48 hours
Experimental: (§2) The MTT assay was performed to measure the proliferation of various cancer cell lines, such as HEK293T, LN18 glioma, HepG2 liver cancer, AGS gastric cancer, and A549 lung cancer cells.

HEK293T cells [3] = assay: MTT proliferation with stimulants (FIG. 37); assay type: cell-based; settings: pre-incubated one hour, stimulant 48 hours
Experimental: as §2

A549 cells = assay: MTT proliferation with stimulants (FIG. 37); assay type: cell-based; settings: pre-incubated one hour, stimulant 48 hours
Experimental: as §2

HepG2 cells [4] = assay: MTT proliferation with stimulants (FIG. 37); assay type: cell-based; settings: pre-incubated one hour, stimulant 48 hours
Experimental: as §2

cyclin D1 and c-Myc = assay: Wnt3A-induced cyclin D1 and c-Myc expression, Western blotting; assay type: cell-based; settings: HEK293T; pretreated one hour; Wnt3A 30 ng/mL two hours; FIG. 9
Experimental: as §1, with “Thereafter, the membrane was incubated for 1 hour with anti-rat IgG antibody or anti-mouse IgG antibody conjugated with horse radish peroxidase (HRP) (both provided by ENZO Life Science; Farmingdale, USA, 1/1000 dilution) and each was washed later three times for 10 minutes. The membrane was incubated with an enhanced chemiluminescence (ECL) reagent (Amersham; Uppsala, Sweden) and then exposed to an X-ray film.” left out

HEK293T cells [5] = assay: Wnt3A-induced cell proliferation, fluorescence microscopy; assay type: cell-based; settings: Tat-C3 1 μg/mL, Y27632 10 μM pretreated one hour; Wnt3A 30 ng/mL two days; FIG. 6
Experimental: (§3) All cells tested were cultured in Dulbecco's Modified Eagle Medium (DMEM; Weljin, Gyeongsan) containing 5% fetal bovine serum (FBS; GIBCO, Carlsbad, USA) and 1% penicillin-streptomycin (complete medium) under 5% CO2 at 37° C.

[6] = test system: macrophage cell line RAW264.7; assay: Wnt3A-mediated cell proliferation, fluorescence microscopy; assay type: cell-based, mouse; settings: Tat-C3 1 μg/mL, Y27632 10 μM pretreated one hour; Wnt3A 30 ng/mL two days; FIG. 7
Experimental: as §3

HepG2 cells [7] = assay: MTT proliferation, substituted amino acids of EM3 (FIGS. 39, 40); assay type: cell-based; settings: DMEM 2.5% FBS 48 hours, FIG. 40 legend
Experimental: FIGS. 39 and 40 show the effect of the substituted amino acids of EM3 on cell proliferation, and the present inventors have designed various peptide inhibitors replaced with other amino acids. The cells were cultured in DMEM containing 2.5% FBS for 48 hours and cell proliferation was measured by MTT assay.

4T1 = assay: MTT proliferation, FBS-stimulated (FIG. 38); assay type: cell-based, mouse; settings: pretreated one hour, 2% FBS 48 hours
Experimental: (§4) The MTT assay was performed to measure the proliferation of various cancer cell lines, such as HEK293T, LN18 glioma, HepG2 liver cancer, HT29 colon cancer, 4T1 mouse breast cancer, and RAW264.7 mouse macrophages.

RAW264.7 cells = assay: MTT proliferation, FBS-stimulated (FIG. 38); assay type: cell-based, mouse; settings: pretreated one hour, 2% FBS 48 hours
Experimental: as §4

HEK293T = assay: MTT proliferation, FBS-stimulated (FIG. 38); assay type: cell-based; settings: pretreated one hour, 2% FBS 48 hours
Experimental: as §4

LN18 = assay: MTT proliferation, FBS-stimulated (FIG. 38); assay type: cell-based; settings: pretreated one hour, 2% FBS 48 hours
Experimental: as §4

HT29 = assay: MTT proliferation, FBS-stimulated (FIG. 38); assay type: cell-based; settings: pretreated one hour, 2% FBS 48 hours
Experimental: as §4

HepG2 = assay: MTT proliferation, FBS-stimulated (FIG. 38); assay type: cell-based; settings: pretreated one hour, 2% FBS 48 hours
Experimental: as §4

4T1 cells = assay: Xenotransplantation experiment with 4T1 cells in BALB/c mice; assay type: in vivo; settings: EM3 2.5 mM, 10 μL/mouse daily
Experimental: Animal care and experiments were performed by the approval of the Institutional Animal Care and Use Committee (HIRB-2016-52) of Hallym University. Male BALB/c mice (7 weeks old) were injected with 4T1 cells (5×10^5 cells in […] of 1×PBS), and randomly assigned to an EM3 treatment group (7 mice) or the control group (6 mice). The normal group also included two non-tumor mice. Cells were injected subcutaneously and EM3 (2.5 mM, 10 μL/mouse) and 1× PBS (10 μL/mouse) were applied daily. Tumor volume was measured daily and tumor weight and spleen size were measured after sacrificing the mice.

## CC[C@H](C)C(NC(=O)[C@H](CC(=O)O)NC(=O)[C@H](C)NC(=O)[C@@H](NC(=O)[C@H](Cc1ccc(O)cc1)NC(=O)[C@H](CC(N)=O)NC(=O)[C@H](CCC(=O)O)NC(=O)[C@H](Cc1ccccc1)NC(=O)[C@@H](NC(=O)[C@@H](NC(=O)CCCCC1SC[C@@H]2NC(=O)N[C@H]12)[C@@H](C)O)C(C)C)C(C)C)C(=O)N[C@@H](CCC(=O)O)C(=O)O (stereo partly shown) [EM4] ({Biotinyl(4ξ)}-TVFENYVAD[ξIle]E-OH)
HEK293T cells [1]
  migration of HEK293 cells in response to Wnt3A: reducing the migration

## CC(C)[C@H](NC(=O)[C@H](Cc1ccc(O)cc1)NC(=O)[C@@H](N)CC(N)=O)C(=O)N[C@@H](C)C(N)=O [PR2] (H-NYVA-NH2)
[2]
  co-immunoprecipitation of p-Tyr42 RhoA and β-catenin: inhibited
LN18 cells
  proliferation of LN18 cells by EGF: significantly inhibited
HEK293T cells [3]
  proliferation of HEK293T cells by LPS: significantly inhibited
  proliferation of HEK293T cells by Wnt3A: significantly inhibited
  proliferation of HEk293T cells by H2O2: significantly inhibited
A549 cells
  proliferation of A549 cells by PMA: significantly inhibited
HepG2 cells [4]
  proliferation of HepG2 cells by insulin: significantly inhibited

## CC(C)[C@H](NC(=O)[C@H](Cc1ccc(OP(=O)(O)O)cc1)NC(=O)[C@@H](N)CC(N)=O)C(=O)N[C@@H](C)C(N)=O [PR3] (H-N[pY]VA-NH2)
[2]
  co-immunoprecipitation of p-Tyr42 RhoA and β-catenin: inhibited
LN18 cells
  proliferation of LN18 cells by EGF: significantly inhibited
HEK293T cells [3]
  proliferation of HEK293T cells by LPS: significantly inhibited
  proliferation of HEK293T cells by Wnt3A: significantly inhibited
  proliferation of HEk293T cells by H2O2: significantly inhibited
A549 cells
  proliferation of A549 cells by PMA: significantly inhibited
HepG2 cells [4]
  proliferation of HepG2 cells by insulin: significantly inhibited
HEK293T cells [1]
  migration of HEK293 cells in response to Wnt3A: reducing the migration

## C[C@@H](N)[C@H]1CC[C@H](C(=O)Nc2ccncc2)CC1 [Y27632]
Cyclin D1 and c-Myc
  Wnt3A-increased expression of cyclin D1 and c-Myc: abolished this increased expression
HEK293T cells [5]
  proliferation of HEK293T cells by Wnt3A: abolished
[6]
  Wnt3A-mediated proliferation in RAW264.7: inhibited

## AYVA [HL1]
HepG2 cells [7]
  inhibitory effect on HepG2 cell proliferation, compared with EM3: less effective than EM3

## NFVA [HL7]
HepG2 cells [7]
  inhibitory effect on HepG2 cell proliferation, compared with EM3: less effective than EM3

## NYLA [HL5]
HepG2 cells [7]
  inhibitory effect on HepG2 cell proliferation, compared with EM3: less effective than EM3

## NYVA-NH2 [EM3]
4T1
  proliferation of FBS-stimulated 4T1 cells: significantly inhibited
RAW264.7 cells
  proliferation of FBS-stimulated RAW264.7 cells: significantly inhibited
[2]
  co-immunoprecipitation of p-Tyr42 RhoA and β-catenin: inhibited
HEK293T
  proliferation of FBS-stimulated HEK293T cells: significantly inhibited
LN18
  proliferation of FBS-stimulated LN18 cells: significantly inhibited
HT29
  proliferation of FBS-stimulated HT29 cells: significantly inhibited
HepG2
  proliferation of FBS-stimulated HepG2 cells: significantly inhibited
HEK293T cells [1]
  migration of HEK293 cells in response to Wnt3A: reducing the migration
4T1 cells; 4T1 cells subcutaneous, FIG. 43A
  tumor volume: dramatically decreased
4T1 cells; 4T1 cells subcutaneous, after sacrifice, FIG. 43B
  tumor weight: dramatically decreased
4T1 cells; 4T1 tumor, after sacrifice, FIG. 43C
  spleen size: same size compared to control mice

## NYVS [HL4]
HepG2 cells [7]
  inhibitory effect on HepG2 cell proliferation, compared with EM3: less effective than EM3
